From ChEMBL document CHEMBL4138244, “Structure-based identification of a NEDD8-activating enzyme inhibitor via drug repurposing” (Eur J Med Chem, 2018)
Activity calls are given as the source filed them. No cut-off for these calls is given here.

Columns and labels:
[1] = target: T1, NEDD8 activating enzyme (Homo sapiens) (UniProt Q8TBC4+Q13564); assay: Inhibition of NAE in human Caco2 cells assessed as increase in p53 protein levels at 1 to 10 uM after 16 hrs by Western blot analysis; type: cell-based
[2] = target: T1, NEDD8 activating enzyme (Homo sapiens); assay: Inhibition of NAE in human Caco2 cells assessed as increase in phosphorylated NF-kappaB protein levels at 0.1 to 10 uM after 16 hrs by Western blot analysis; type: cell-based
[3] = target: T1, NEDD8 activating enzyme (Homo sapiens); assay: Inhibition of NAE in human Caco2 cells assessed as increase in p53 protein levels at 0.1 to 10 uM after 16 hrs by Western blot analysis; type: cell-based
[4] = tested on: Caco-2; assay: Induction of apoptosis in human Caco2 cells assessed as viable cells at 5 uM after 16 hrs by Annexin V-FITC/propidium iodide staining-based flow cytometric analysis (reference value: 98.4%); type: functional; conditions: Caco-2, 16 h, read-out: Activity
[5] = tested on: Caco-2; assay: Induction of apoptosis in human Caco2 cells assessed as early apoptotic cells at 1 uM after 16 hrs by Annexin V-FITC/propidium iodide staining-based flow cytometric analysis (reference value: 1.40%); type: functional
[6] = target: T1, NEDD8 activating enzyme (Homo sapiens); assay: Inhibition of NAE in human Caco2 cells assessed as decrease in cyclin D1 protein levels at 0.1 to 10 uM after 16 hrs by Western blot analysis; type: cell-based
[7] = target: T1, NEDD8 activating enzyme (Homo sapiens); assay: Inhibition of NAE (unknown origin) assessed as decrease in NAE-mediated Ubc12-NEDD8 conjugation levels preincubated for 10 mins followed by ATP and Mg2+ addition measured after 60 mins by Western blot analysis; type: protein-complex assay
[8] = tested on: Caco-2; assay: Cytotoxicity against human Caco2 cells after 72 hrs by MTT assay; type: functional, cell-based; conditions: Caco-2, 72 h
[9] = target: T1, NEDD8 activating enzyme (Homo sapiens); assay: Inhibition of NAE in human Caco2 cells assessed as increase in beta-catenin protein levels after 16 hrs by Western blot analysis; type: cell-based
[10] = target: T2, SUMO-activating enzyme (Homo sapiens) (UniProt Q9UBE0+Q9UBT2); assay: Inhibition of SAE-mediated Ubc9-SUMO conjugation in human Caco2 cells up to 10 uM preincubated for 10 mins followed by ATP and Mg2+ addition measured after 60 mins by Western blot analysis; type: cell-based
[11] = tested on: Caco-2; assay: Induction of apoptosis in human Caco2 cells assessed as early apoptotic cells at 5 uM after 16 hrs by Annexin V-FITC/propidium iodide staining-based flow cytometric analysis (reference value: 1.40%); type: functional
[12] = target: T3, Ubiquitin-like modifier-activating enzyme 1 (Homo sapiens) (UniProt P22314); assay: Inhibition of UAE1 (unknown origin) assessed as decrease in UAE1-mediated Ubc10-ubiquitin conjugation levels up to 10 uM preincubated for 10 mins followed by ATP and Mg2+ addition measured after 60 mins by Western blot analysis
T3 sequence (whole entry): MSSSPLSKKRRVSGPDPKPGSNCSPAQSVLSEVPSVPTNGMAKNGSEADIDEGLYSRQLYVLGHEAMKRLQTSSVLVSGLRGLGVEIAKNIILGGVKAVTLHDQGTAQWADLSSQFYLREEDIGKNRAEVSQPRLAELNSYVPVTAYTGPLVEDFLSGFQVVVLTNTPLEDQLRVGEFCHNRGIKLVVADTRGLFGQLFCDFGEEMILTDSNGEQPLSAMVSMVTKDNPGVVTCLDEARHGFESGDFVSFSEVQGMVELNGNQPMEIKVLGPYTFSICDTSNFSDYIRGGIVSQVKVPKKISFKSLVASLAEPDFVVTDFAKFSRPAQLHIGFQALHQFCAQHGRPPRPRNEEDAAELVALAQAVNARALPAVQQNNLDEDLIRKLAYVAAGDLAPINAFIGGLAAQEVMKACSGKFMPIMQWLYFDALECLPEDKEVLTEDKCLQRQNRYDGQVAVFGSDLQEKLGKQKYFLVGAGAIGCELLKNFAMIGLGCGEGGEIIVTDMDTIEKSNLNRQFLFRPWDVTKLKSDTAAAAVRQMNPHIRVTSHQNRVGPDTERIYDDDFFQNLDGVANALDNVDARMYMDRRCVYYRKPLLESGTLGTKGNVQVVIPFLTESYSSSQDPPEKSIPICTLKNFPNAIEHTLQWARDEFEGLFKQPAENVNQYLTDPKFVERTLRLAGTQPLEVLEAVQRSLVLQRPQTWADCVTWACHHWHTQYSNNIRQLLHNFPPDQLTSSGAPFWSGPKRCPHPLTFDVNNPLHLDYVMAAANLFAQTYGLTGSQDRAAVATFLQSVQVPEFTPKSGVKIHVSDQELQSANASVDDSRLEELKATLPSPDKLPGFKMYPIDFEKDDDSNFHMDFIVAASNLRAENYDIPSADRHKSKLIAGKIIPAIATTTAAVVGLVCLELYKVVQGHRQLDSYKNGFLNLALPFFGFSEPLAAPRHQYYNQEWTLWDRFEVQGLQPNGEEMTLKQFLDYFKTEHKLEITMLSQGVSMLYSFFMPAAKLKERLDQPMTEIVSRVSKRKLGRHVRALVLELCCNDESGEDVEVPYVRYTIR

[13] = tested on: Caco-2; assay: Upregulation of p53 protein levels in NAE knockdown human Caco2 cells at 10 uM after 16 hrs by Western blot analysis; type: functional, cell-based
[14] = tested on: Caco-2; assay: Induction of apoptosis in human Caco2 cells assessed as necrotic cells at 1 uM after 16 hrs by Annexin V-FITC/propidium iodide staining-based flow cytometric analysis (reference value: 0.12%); type: functional
[15] = tested on: Caco-2; assay: Induction of apoptosis in human Caco2 cells assessed as viable cells at 1 uM after 16 hrs by Annexin V-FITC/propidium iodide staining-based flow cytometric analysis (reference value: 98.4%); type: functional; conditions: Caco-2, 16 h, read-out: Activity
[16] = target: T1, NEDD8 activating enzyme (Homo sapiens); assay: Inhibition of NAE-mediated Ubcl2-NEDD8 conjugation in human Caco2 cells at 10 uM after 16 hrs by Western blot analysis; type: cell-based
[17] = tested on: Caco-2; assay: Induction of apoptosis in human Caco2 cells assessed as early apoptotic cells at 10 uM after 16 hrs by Annexin V-FITC/propidium iodide staining-based flow cytometric analysis (reference value: 1.40%); type: functional
[18] = target: T4, NEDD8 activating enzyme (Homo sapiens, UniProt Q8TBC4); assay: (§1) Inhibition of NAE-mediated Ubcl2-NEDD8 conjugation in human Caco2 cells after 16 hrs by Western blot analysis; type: cell-based
T4 sequence (Q8TBC4 whole entry): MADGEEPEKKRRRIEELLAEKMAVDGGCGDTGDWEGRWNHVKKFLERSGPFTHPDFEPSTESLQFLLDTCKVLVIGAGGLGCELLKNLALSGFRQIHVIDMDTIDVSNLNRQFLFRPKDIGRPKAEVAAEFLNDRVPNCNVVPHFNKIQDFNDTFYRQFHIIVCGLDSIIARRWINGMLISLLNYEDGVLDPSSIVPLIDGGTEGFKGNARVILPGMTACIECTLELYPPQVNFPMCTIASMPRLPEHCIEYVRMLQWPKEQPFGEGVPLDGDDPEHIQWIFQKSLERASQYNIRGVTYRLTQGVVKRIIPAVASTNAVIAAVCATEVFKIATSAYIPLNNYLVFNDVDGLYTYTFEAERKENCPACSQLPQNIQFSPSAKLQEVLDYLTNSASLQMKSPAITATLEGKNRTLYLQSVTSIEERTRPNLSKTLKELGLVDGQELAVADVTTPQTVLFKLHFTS
T4 sequence (Q13564 whole entry): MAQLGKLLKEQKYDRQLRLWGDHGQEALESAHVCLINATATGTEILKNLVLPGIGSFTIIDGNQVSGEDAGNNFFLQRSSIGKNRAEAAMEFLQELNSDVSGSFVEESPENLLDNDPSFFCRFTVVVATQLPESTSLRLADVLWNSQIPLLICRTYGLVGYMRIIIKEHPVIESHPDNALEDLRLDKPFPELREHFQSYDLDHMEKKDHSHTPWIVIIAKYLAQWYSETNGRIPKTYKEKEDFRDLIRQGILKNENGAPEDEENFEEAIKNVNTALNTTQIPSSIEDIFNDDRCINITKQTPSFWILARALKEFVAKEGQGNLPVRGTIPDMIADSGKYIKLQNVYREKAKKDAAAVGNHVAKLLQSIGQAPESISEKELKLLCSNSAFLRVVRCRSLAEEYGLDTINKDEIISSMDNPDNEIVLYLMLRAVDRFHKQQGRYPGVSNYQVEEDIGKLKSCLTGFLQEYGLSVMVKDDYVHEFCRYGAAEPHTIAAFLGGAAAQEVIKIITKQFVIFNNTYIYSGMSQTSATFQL

[19] = target: T1, NEDD8 activating enzyme (Homo sapiens); assay: as §1; type: cell-based
[20] = tested on: Caco-2; assay: Induction of apoptosis in human Caco2 cells assessed as necrotic cells at 5 uM after 16 hrs by Annexin V-FITC/propidium iodide staining-based flow cytometric analysis (reference value: 0.12%); type: functional
[21] = target: T1, NEDD8 activating enzyme (Homo sapiens); assay: Inhibition of NAE (unknown origin) assessed as decrease in NAE-mediated Ubc12-NEDD8 conjugation levels at 10 uM treated for 10 mins post ATP and Mg2+ addition measured after 60 mins by Western blot analysis; type: protein-complex assay
[22] = target: T1, NEDD8 activating enzyme (Homo sapiens); assay: Inhibition of NAE in human Caco2 cells assessed as increase in p53 protein levels by measuring p53 degradation at 10 uM preincubated for 16 hrs followed by cycloheximide addition measured up to 60 mins by Western blot analysis relative to control; type: cell-based; set-up: scale not given: the % may be the effect or the level left
[23] = tested on: Caco-2; assay: Cytotoxicity against NAE-knockdown human Caco2 cells after 72 hrs by MTT assay; type: cell-based; conditions: Caco-2, 72 h
[24] = tested on: Caco-2; assay: Induction of apoptosis in human Caco2 cells assessed as viable cells at 10 uM after 16 hrs by Annexin V-FITC/propidium iodide staining-based flow cytometric analysis (reference value: 98.4%); type: functional; conditions: Caco-2, 16 h, read-out: Activity
[25] = target: T1, NEDD8 activating enzyme (Homo sapiens); assay: Inhibition of NAE in human Caco2 cells assessed as increase in p27 protein levels at 0.1 to 10 uM after 16 hrs by Western blot analysis; type: cell-based
[26] = tested on: Caco-2; assay: Induction of apoptosis in human Caco2 cells assessed as late apoptotic cells at 5 uM after 16 hrs by Annexin V-FITC/propidium iodide staining-based flow cytometric analysis (reference value: 0.072%); type: functional
[27] = target: T2, SUMO-activating enzyme (Homo sapiens); assay: Inhibition of SAE (unknown origin) assessed as decrease in SAE-mediated Ubc9-SUMO conjugation levels up to 10 uM preincubated for 10 mins followed by ATP and Mg2+ addition measured after 60 mins by Western blot analysis; type: protein-complex assay
[28] = target: T1, NEDD8 activating enzyme (Homo sapiens); assay: Inhibition of NAE in human Caco2 cells harboring p53-luc plasmid assessed as increase in p53 transcriptional activity after 16 hrs by luciferase reporter gene assay; type: cell-based
[29] = target: T3, Ubiquitin-like modifier-activating enzyme 1 (Homo sapiens); assay: Inhibition of UAE1-mediated Ubc10-ubiquitin conjugation in human Caco2 cells up to 10 uM preincubated for 10 mins followed by ATP and Mg2+ addition measured after 60 mins by Western blot analysis; type: cell-based
[30] = tested on: Caco-2; assay: Induction of apoptosis in human Caco2 cells assessed as late apoptotic cells at 10 uM after 16 hrs by Annexin V-FITC/propidium iodide staining-based flow cytometric analysis (reference value: 0.072%); type: functional
[31] = target: T1, NEDD8 activating enzyme (Homo sapiens); assay: Inhibition of NAE in human Caco2 cells assessed as increase in c-myc protein levels after 16 hrs by Western blot analysis; type: cell-based
[32] = target: T1, NEDD8 activating enzyme (Homo sapiens); assay: Inhibition of NAE in human Caco2 cells assessed as decrease in Bcl2 protein levels at 0.1 to 10 uM after 16 hrs by Western blot analysis; type: cell-based
[33] = target: T1, NEDD8 activating enzyme (Homo sapiens); assay: Competitive inhibition of NAE (unknown origin) assessed as decrease in NAE-mediated Ubc12-NEDD8 conjugation levels at 10 uM preincubated for 10 mins followed by Mg2+ and various concentrations of ATP addition measured after 60 mins by Lineweaver-Burk plot analysis; type: protein-complex assay
[34] = tested on: Caco-2; assay: Induction of apoptosis in human Caco2 cells assessed as late apoptotic cells at 1 uM after 16 hrs by Annexin V-FITC/propidium iodide staining-based flow cytometric analysis (reference value: 0.072%); type: functional
[35] = tested on: Caco-2; assay: Induction of apoptosis in human Caco2 cells assessed as necrotic cells at 10 uM after 16 hrs by Annexin V-FITC/propidium iodide staining-based flow cytometric analysis (reference value: 0.12%); type: functional

Question: How did the inhibition [1] turn out when `COc1cc([C@@H]2c3cc4c(cc3[C@H](O)[C@H]3COC(=O)[C@H]23)OCO4)cc(OC)c1OC` was run?
Answer: Active

Question: What does the source list for `O=C1c2c(O)ccc(O)c2C(=O)c2c(NCCNCCO)ccc(NCCNCCO)c21` [MITOXANTRONE]?
Answer: inhibition [2]: Active; inhibition [3]: Active; viability at 5 µM [4]: 15.4%; Activity [5]: 42%; inhibition [6]: Active; inhibition [7]: Dose-dependent effect; IC50 [8]: 1400 nM; inhibition [9]: Dose-dependent effect; inhibition [10]: inactive; Activity [11]: 27.8%; inhibition [12]: inactive; Activity [13]: Active; Activity [14]: 2.49%; viability at 1 µM [15]: 36%; inhibition [16]: Active; Activity [17]: 0.91%; EC50 [18]: 1300 nM; inhibition [19]: Dose-dependent effect; Activity [20]: 6.07%; inhibition [21]: inactive; Activity [22]: 15%; IC50 [23]: > 10000 nM; viability at 10 µM [24]: 3.34%; inhibition [25]: Active; Activity [26]: 50.7%; inhibition [27]: inactive; inhibition [28]: Dose-dependent effect; inhibition [29]: inactive; Activity [30]: 22.1%; inhibition [1]: Active; inhibition [31]: Dose-dependent effect; inhibition [32]: Active; inhibition [33]: Active; Activity [34]: 19.4%; Activity [35]: 73.6%

Question: For `NS(=O)(=O)OC[C@@H]1C[C@@H](n2ccc3c(N[C@H]4CCc5ccccc54)ncnc32)C[C@@H]1O` [PEVONEDISTAT], which IC50 [8] is on record?
Answer: 4400 nM

Question: And the Activity [17]?
Answer: 32.8%

Question: And the inhibition [19]?
Answer: Dose-dependent effect

Question: What about the viability at 10 µM [24] of the same compound?
Answer: 46.6%

Question: And the Activity [30]?
Answer: 14.3%

Question: And the inhibition [33]?
Answer: Active

Question: What about the Activity [35] of the same compound?
Answer: 6.27%
